Tested on: primary differentiating osteoblasts
Test: Osteoblast differentiation assay (ALP activity) in primary differentiating osteoblasts treated with etomoxir
Format: cell-based, human
Details: 100 μM etomoxir between day 2 and day 5 of differentiation
Experimental: FIG. 9A-9E—3q21.1 haplotype affects lipid oxidation in adipocytes and osteoblasts. (9A) Osteoblast alkaline phosphatase (ALP) activity in primary differentiating osteoblasts treated with 100 μM etomoxir (carnitine palmitoyltransferase 1 antagonist) or negative control. Assays were performed in cells from 18 heterozygous individuals (haplotypes 1/2) and 23 homozygous individuals (haplotypes 1/1) and differentiating osteoblasts were treated between day 2 and day 5 of differentiation. (9B) Oxidation of [14C]palmitate (0.5 mM) to 14CO2 in primary differentiating osteoblasts treated with 100 μM etomoxir (carnitine palmitoyltransferase 1 antagonist) or negative control. […] Seahorse XF24 Flux analyzer was performed at each time point and contribution of ATP generation was calculated from glycolysis vs. oxidative phosphorylation. […] Isogenic lines were differentiated to osteoblasts after undergoing clonal expansion, and marker gene expression for osteoblast differentiation was measured by qPCR. […] Isogenic lines were differentiated to adipocytes after undergoing clonal expansion, and catecholamine-stimulated lipolysis was measured. […]
Culture and differentiation of primary human AMSCs. […] Additionally, small quantities of the original liposuction material would be aliquoted into T-25 flasks at a 1:1 ratio of fat to medium as controls to check for contamination. […]

SMILES: CCOC(=O)[C@@]1(CCCCCCOc2ccc(Cl)cc2)CO1 [etomoxir]
- osteoblast differentiation (ALP activity) (haplotype 1 homozygotes (n=23), p-value=0.005): dramatic reduction in osteoblast differentiation
- osteoblast differentiation (ALP activity) (heterozygotes haplotypes 1/2 (n=18)): no effect

From patent US12644100B2, “Methods for treating metabolic disorders by targeting ADCY5” (THE BROAD INSTITUTE, INC., priority 2019, dated 2026)
